According to PubChem BioAssay (NCI):
“And” between values parts separate entries of the source, which are not always exact repeats. Equal entries are not always repeated.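 Where inhibition never reached the appropriate level, the endpoint shown equals the highest concentration tested. Otherwise, values were interpolated linearly from a five-concentration, 48-hour dose response in 96-well plates. GI50 = concentration required for 50% inhibition of growth. TGI: total growth inhibition.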

Key:
Assay in all cases: growth of human tumour cells (NCI), 48 h
A549 NSCLC = system: A549 NSCLC
CAKI-1 renal = system: CAKI-1 renal
HCT-15 colon = system: HCT-15 colon
HOP-92 NSCLC = system: HOP-92 NSCLC
M14 melanoma = system: M14 melanoma
SF-539 CNS = system: SF-539 CNS
SK-MEL-5 melanoma = system: SK-MEL-5 melanoma
SK-OV-3 ovarian = system: SK-OV-3 ovarian
HCC-2998 colon = system: HCC-2998 colon
SK-MEL-28 melanoma = system: SK-MEL-28 melanoma

Structure (SMILES) | TGI (A549 NSCLC) | TGI (CAKI-1 renal) [µM] | TGI (HCT-15 colon) | TGI (HOP-92 NSCLC) | TGI (M14 melanoma) [µM] | TGI (SF-539 CNS) | TGI (SK-MEL-5 melanoma) | TGI (SK-OV-3 ovarian) | TGI (HCC-2998 colon) [µM] | TGI (SK-MEL-28 melanoma) | GI50 (A549 NSCLC) [µM] | GI50 (CAKI-1 renal) | GI50 (HCC-2998 colon) [µM] | GI50 (SK-MEL-5 melanoma) | GI50 (SK-OV-3 ovarian)
Cc1cc2cc3c(cc2c(-c2ccc(N)cc2)n1)OCO3 | > 100 µM | 75.4 | > 100 µM | 75.4 µM | > 100 | > 100 µM | 71.9 µM | > 100 µM | – | – | – | – | – | – | –
CSc1nc(NC(C)C)c2c(n1)Sc1nc3ccccc3n1C2O (stereo not drawn) | > 100 µM | > 100 | > 100 µM | > 100 µM | > 100 | – | – | > 100 µM | > 100 | > 100 µM | – | – | – | – | –
O=C1C=CC(=O)c2c(O)c(N3CCN(CCOCCO)CC3)c(Cl)c(O)c21 | 7.87 µM [middle of 4 runs] | – | 817 nM [middle of 4 runs] | 0.45 µM and 0.493 µM and 1.12 µM | – | 3.31 µM [middle of 4 runs] | 1.81 µM [middle of 4 runs] | 13.5 µM and 7.9 µM and 19.9 µM | – | 2.89 µM [middle of 4 runs] | 2.39 | 456 nM [middle of 4 runs] | 2.27 | 688 nM [middle of 4 runs] | 4.59 µM [middle of 4 runs]
CS(=O)(=O)NC12CCC(c3ccccc31)c1ccccc12 | > 100 µM | > 100 | > 100 µM | > 100 µM | > 100 | > 100 µM | > 100 µM | > 100 µM | – | > 100 µM | – | – | – | – | –
O=C(/C=C/c1cccs1)c1ccccc1Cl | 1.4 µM | 23 | 33.4 µM | 97.5 µM | > 55.9 | > 69.1 µM | 32.5 µM | > 77.9 µM | 32.2 | 38.8 µM | – | – | – | – | –
Cc1ccccc1OC(C)C(=O)NN1C(=O)CC(=O)N(c2ccccc2)C1=S (stereo not drawn) | > 100 µM | > 100 | > 100 µM | > 100 µM | > 100 | > 100 µM | > 100 µM | > 100 µM | > 100 | > 100 µM | – | – | – | – | –
CC(C)(C)OC(=O)n1cc(C2CN(O)C(=O)C23CCC(=O)N3Cc2ccccc2)c2ccccc21 (stereo not drawn) | > 100 µM | > 100 | – | 50.8 µM | > 100 | > 100 µM | > 100 µM | 66.5 µM | – | – | – | – | – | – | –
O=C1C=CC(=O)c2c(Cl)ccc(O)c21 | > 100 µM | 16.1 | 39.1 µM | 6.96 µM | – | > 56.8 µM | 33.1 µM | > 100 µM | > 100 | 33 µM | – | – | – | – | –
CSc1ccc(/C=C2\N=C(c3ccccc3)N(/N=C/c3cc4cc(C)ccc4nc3Cl)C2=O)cc1 | 59 µM | 45.3 | 96.5 µM | 40.1 µM | 38.4 | 43.3 µM | 32.9 µM | 66.1 µM | 35.5 | 37.6 µM | – | – | – | – | –
CC(=O)/C(=C\c1ccc(Cl)c(Cl)c1)C(=O)C(C)CN(C)C (stereo not drawn) | 35.7 µM | 17.1 | 10.1 µM | 9.55 µM | 24.2 | 13.4 µM | 25.3 µM | 37.1 µM | 9.66 | 21 µM | – | – | – | – | –
NCCOCC(N)C(=O)O (stereo not drawn) | > 100 µM | > 100 | > 100 µM | > 100 µM | > 100 | > 100 µM | > 100 µM | > 100 µM | > 100 | > 100 µM | – | – | – | – | –
